Measured values reported in patent US9776990B2, “Isoindolone derivatives” (AbbVie Inc., priority 2012, dated 2017).
Like-named read-outs stand apart in the source and are kept apart here.

Tests used:
[1] = tested on: breast cancer cell line MX-1; assay: MX-1 cell line proliferation assay (3-day, Cell Titer Glo); assay type: cell-based, human; conditions: 72 hours, read-out: Cellular proliferation: EC50
Procedure: The impact of compounds of the Examples on cancer cell proliferation was determined using the breast cancer cell line MX-1 (ATCC) in a 3-day proliferation assay. MX-1 cells were maintained in RPMI supplemented with 10% FBS at 37 C.° and an atmosphere of 5% CO2. For compound testing, MX-1 cells were plated in 96-well black bottom plates at a density of 5000 cells/well in 90 μl of culture media and incubated at 37° overnight to allow cell adhesion and spreading. Compound dilution series were prepared in DMSO via a 3-fold serial dilution from 3 mM to 0.1 μM. The DMSO dilution series were then diluted 1:100 in phosphate buffered saline, and 10 μL of the resulted solution were added to the appropriate wells of the MX-1 cell plate. The final compound concentrations in the wells were 3, 1, 0.3, 0.1, 0.03, 0.01, 0.003, 0.001, 0.0003 and 0.0001 μM.
Luminescence readings from the Cell Titer Glo assay were normalized to the DMSO treated cells and analyzed using the GraphPad Prism software with sigmoidal curve fitting to obtain EC50s. The minimum significant ratio (MSR) was determined to evaluate assay reproducibility (Eastwood et al., (2006) J Biomol Screen, 11: 253-261).

BRD4 (BDII_E352-M457) = BRD4 (BDII_E352-M457) (Homo sapiens (Human), UniProt O60885); assay: TR-FRET bromodomain binding assay, BRD4 second bromodomain; conditions: His-tagged BD2, 30 nM Alexa647 probe
Procedure: (§1) A time-resolved fluorescence resonance energy transfer (TR-FRET) assay was used to determine the affinities of compounds of the Examples listed in Table 1 for each bromodomain of BRD4. His-tagged first (BD1: amino acids K57-E168) and second (BD2: amino acids E352-E168) bromodomains of BRD4 were expressed and purified. An Alexa647-labeled BET-inhibitor was used as the fluorescent probe in the assay.
(§2) Compound dilution series were prepared in DMSO via a 3-fold serial dilution from 2.5 mM to 42 nM. Compounds were then diluted 6:100 in assay buffer (20 mM Sodium Phosphate, pH 6.0, 50 mM NaCl, 1 mM EDTA, 0.01% Triton X-100, 1 mM DTT) to yield 3× working solutions. Six microliters (μL) of the working solution was then transferred to white, low-volume assay plates (Costar #3673). A 1.5× assay mixture containing His-tagged bromodomain, Europium-conjugated anti-His antibody (Invitrogen PV5596) and the Alexa-647-conjugated probe molecule was also prepared. Twelve μL of this solution were added to the assay plate to reach a final volume of 18 μL. The final concentration of 1× assay buffer contains 2% DMSO, 50 μM−0.85 nM compound, 8 nM bromodomain, 1 nM antibody and 100 or 30 nM probe (for BDI or BDII, respectively). After a one-hour incubation at room temperature, TR-FRET ratios were determined using an Envision multilabel plate reader (Ex 340, Em 495/520).
(§3) TR-FRET data were normalized to the means of 24 no-compound controls (“high”) and 8 controls containing 1 μM un-labeled probe (“low”). Percent inhibition was plotted as a function of compound concentration and the data were fit with the 4 parameter logistic equation to obtain IC50s Inhibition constants (Ki) were calculated from the IC50s, probe Kd and probe concentration. Typical Z′ values were between 0.65 and 0.75. The minimum significant ratio was determined to evaluate assay reproducibility (Eastwood et al., (2006) J Biomol Screen, 11: 253-261). The MSR was determined to be 2.03 for BDI and 1.93 for BDII, and a moving MSR (last six run MSR overtime) for both BDI and BDII was typically <3.

BRD4 (BDI_K57-E168) = BRD4 (BDI_K57-E168) (Homo sapiens (Human), UniProt O60885); assay: TR-FRET bromodomain binding assay, BRD4 first bromodomain; conditions: His-tagged BD1, 100 nM Alexa647 probe
Procedure: as §1, §2, §3

Structure (SMILES)	EC50 ([1]; Homo sapiens, MX1, MX-1 cells)	Ki (BRD4 (BDII_E352-M457))	Ki (BRD4 (BDI_K57-E168))	EC50 ([1]; MX-1 cells)
Cc1[nH]c(-c2ccccc2OCCN2CCOCC2)c2c1C(=O)CCC2 [Example 33, 3-methyl-1-{2-[2-(morpholin-4-yl)ethoxy]phenyl}-2,5,6,7-tetrahydro-4H-isoindol-4-one]	> 3 µM	8.16 µM	1.04 µM	
Cc1[nH]c(-c2ccccc2OCC2CCOC2)c2c1C(=O)CCC2 (stereo not drawn) [Example 29, 3-methyl-1-[2-(tetrahydrofuran-3-ylmethoxy)phenyl]-2,5,6,7-tetrahydro-4H-isoindol-4-one]	> 3 µM	2.92 µM	0.315 µM	
Cc1[nH]c(-c2ccccc2OCc2cccnc2)c2c1C(=O)CCC2 [Example 37, 3-methyl-1-[2-(pyridin-3-ylmethoxy)phenyl]-2,5,6,7-tetrahydro-4H-isoindol-4-one]	> 3 µM	4.14 µM	0.526 µM	
Cc1[nH]c(-c2ccc(S(N)(=O)=O)cc2)c2c1C(=O)CCC2 [Example 5, 4-(3-methyl-4-oxo-4,5,6,7-tetrahydro-2H-isoindol-1-yl)benzenesulfonamide]	3.7 µM	2.03 µM	1.4 µM	
Cc1[nH]c(-c2cccc(C(N)=O)c2)c2c1C(=O)CCC2 [Example 9, 3-(3-methyl-4-oxo-4,5,6,7-tetrahydro-2H-isoindol-1-yl)benzamide]	2.75 µM	3.1 µM	0.961 µM	
Cc1[nH]c(-c2cc(NS(C)(=O)=O)ccc2Oc2ccccc2)c2c1C(=O)CC(C)C2 (stereo not drawn) [Example 67, N-[3-(3,6-dimethyl-4-oxo-4,5,6,7-tetrahydro-2H-isoindol-1-yl)-4-phenoxyphenyl]methanesulfonamide]	0.11 µM	0.068 µM	0.012 µM	
Cc1[nH]c(-c2cccc3[nH]ccc23)c2c1C(=O)CCC2 [Example 10, 1-(1H-indol-4-yl)-3-methyl-2,5,6,7-tetrahydro-4H-isoindol-4-one]	1.23 µM	4.06 µM	1.79 µM	
Cc1[nH]c(-c2cc(NS(=O)(=O)N(C)C)ccc2Oc2ccc(F)cc2F)c2c1C(=O)CCC2 [Example 49, N′-[4-(2,4-difluorophenoxy)-3-(3-methyl-4-oxo-4,5,6,7-tetrahydro-2H-isoindol-1-yl)phenyl]-N,N-dimethylsulfuric Diamide]	0.364 µM	0.192 µM	0.043 µM	
Cc1[nH]c(-c2cc(N)ccc2Sc2ccccc2)c2c1C(=O)CCC2 [Example 43, 1-[5-amino-2-(phenylsulfanyl)phenyl]-3-methyl-2,5,6,7-tetrahydro-4H-isoindol-4-one]	> 3 µM	0.568 µM	1.82 µM	
Cc1[nH]c(-c2cc(NS(=O)(=O)CC(F)(F)F)ccc2Oc2ccc(F)cc2F)c2c1C(=O)CCC2 [Example 48, N-[4-(2,4-difluorophenoxy)-3-(3-methyl-4-oxo-4,5,6,7-tetrahydro-2H-isoindol-1-yl)phenyl]-2,2,2-trifluoromethanesulfonamide]		0.043 µM	0.068 µM	0.564 µM
Cc1[nH]c(-c2cc(NS(C)(=O)=O)ccc2Oc2ccccc2)c2c1C(=O)CC(C(C)C)C2 (stereo not drawn) [Example 71, N-{3-[3-methyl-4-oxo-6-(propan-2-yl)-4,5,6,7-tetrahydro-2H-isoindol-1-yl]-4-phenoxyphenyl}methanesulfonamide]	0.95 µM	0.926 µM	0.375 µM	
Cc1c2c(c(-c3cc(NS(C)(=O)=O)ccc3Oc3ccccc3)n1C)CCCC2=O [Example 41, N-[3-(2,3-dimethyl-4-oxo-4,5,6,7-tetrahydro-2H-isoindol-1-yl)-4-phenoxyphenyl]methanesulfonamide]	0.37 µM	0.216 µM	0.161 µM	
Cc1[nH]c(-c2cc(NS(C)(=O)=O)ccc2Sc2ccccc2)c2c1C(=O)CCC2 [Example 44, N-[3-(3-methyl-4-oxo-4,5,6,7-tetrahydro-2H-isoindol-1-yl)-4-(phenylsulfanyl)phenyl]methanesulfonamide]	0.645 µM	0.037 µM	0.067 µM	
Cc1[nH]c(-c2ccccc2OCc2ccccn2)c2c1C(=O)CCC2 [Example 34, 3-methyl-1-[2-(pyridin-2-ylmethoxy)phenyl]-2,5,6,7-tetrahydro-4H-isoindol-4-one]	> 3 µM	2.62 µM	1.35 µM	
Cc1[nH]c(-c2ccccc2)c2c1C(=O)CCC2 [Example 1, 3-methyl-1-phenyl-2,5,6,7-tetrahydro-4H-isoindol-4-one]	3.4 µM	3.07 µM	3.68 µM	
CC(=O)Nc1ccc(Oc2ccccc2)c(-c2c3c(c(C)n2C)C(=O)CCC3)c1 [Example 42, N-[3-(2,3-dimethyl-4-oxo-4,5,6,7-tetrahydro-2H-isoindol-1-yl)-4-phenoxyphenyl]acetamide]	> 3 µM	1.09 µM	0.569 µM	
Cc1[nH]c(-c2cc(N)ccc2Oc2ccccc2)c2c1C(=O)CCC2 [Example 39, 1-(5-amino-2-phenoxyphenyl)-3-methyl-2,5,6,7-tetrahydro-4H-isoindol-4-one]	0.232 µM	0.365 µM	0.148 µM	
Cc1[nH]c(-c2ccc(S(C)(=O)=O)cc2)c2c1C(=O)CCC2 [Example 8, 3-methyl-1-[4-(methylsulfonyl)phenyl]-2,5,6,7-tetrahydro-4H-isoindol-4-one]	2.5 µM	3.82 µM	1.43 µM	
Cc1[nH]c(-c2cc(N)ccc2Oc2ccc(F)cc2F)c2c1C(=O)CCC2 [Example 45, 1-[5-amino-2-(2,4-difluorophenoxy)phenyl]-3-methyl-2,5,6,7-tetrahydro-4H-isoindol-4-one]	0.329 µM	0.198 µM	0.04 µM	
Cc1[nH]c(-c2ccccc2OCC2CCOCC2)c2c1C(=O)CCC2 [Example 32, 3-methyl-1-[2-(tetrahydro-2H-pyran-4-ylmethoxy)phenyl]-2,5,6,7-tetrahydro-4H-isoindol-4-one]	1.88 µM	1.94 µM	0.202 µM	
Cc1[nH]c(-c2cc(NS(C)(=O)=O)ccc2Oc2ccccc2)c2c1C(=O)CC(CC(C)C)C2 (stereo not drawn) [Example 69, N-{3-[3-methyl-6-(2-methylpropyl)-4-oxo-4,5,6,7-tetrahydro-2H-isoindol-1-yl]-4-phenoxyphenyl}methanesulfonamide]	0.6 µM	2.07 µM	0.151 µM	
Cc1[nH]c(-c2ccccc2OCc2ccccc2)c2c1C(=O)CCC2 [Example 18, 1-[2-(benzyloxy)phenyl]-3-methyl-2,5,6,7-tetrahydro-4H-isoindol-4-one]	1.23 µM	2.03 µM	0.943 µM	
CCS(=O)(=O)Nc1ccc(OC2CCC(F)(F)CC2)c(-c2[nH]c(C)c3c2CCCC3=O)c1 [Example 52, N-{4-[(4,4-difluorocyclohexyl)oxy]-3-(3-methyl-4-oxo-4,5,6,7-tetrahydro-2H-isoindol-1-yl)phenyl}ethanesulfonamide]	0.184 µM	0.088 µM	0.009 µM	
Cc1[nH]c(-c2cccc(NS(C)(=O)=O)c2)c2c1C(=O)CC(C)(C)C2 [Example 64, N-[3-(3,6,6-trimethyl-4-oxo-4,5,6,7-tetrahydro-2H-isoindol-1-yl)phenyl]methanesulfonamide]	> 3 µM	0.409 µM	0.576 µM	
